Data on 10 molecules can be found in ChEMBL document CHEMBL1201862, “PubChem BioAssay data set” (2004).

Some test systems named below: A498; BT-549; CAKI-1; DU-145; HOP-62; Hs-578T; IGROV-1; KM12; MDA-N; Malme-3M; NCI-H460; OVCAR-3; OVCAR-5; OVCAR-8; SF-268; SK-MEL-28; SK-MEL-5; T47D; UACC-257; UACC-62.
Common to all, as to assay: NCI anticancer screen, dose series, 48 h

Each structure is given as a SMILES string.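 1) Cells in 96-well plates. 2) Compound, 48 h, 5 concentrations. 3) Linear interpolation between surrounding doses. 4) Unreached endpoint = highest concentration. GI50 marks 50% less growth.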 Active and inactive are the calls of the source. Rule as the data show it: active = GI50 up to about 1.1 µM and inactive = higher. A value given as a limit tells only on which side of the number the result lay.

As for `CC(=O)O/C(=C1\C[C@H]2[C@@H]3CC=C4C[C@@H](OC(C)=O)CC[C@]4(C)[C@H]3CC[C@]2(C)C1=O)C(F)(F)F`, the GI50 with A498 was 19.3 µM (inactive); in the experiment on BT-549, 12.2 µM (inactive); in the experiment with CAKI-1, 9.71 µM (inactive); in the experiment with DU-145 it was 9.95 µM (inactive); in the experiment with HOP-62 it was 14.1 µM (inactive); in the experiment on Hs-578T it was 7 µM (inactive). Also, the GI50 in the experiment with IGROV-1 is 5.56 µM (inactive); in the experiment with KM12 it was 12.7 µM (inactive); in the experiment on MDA-N it was 7.64 µM (inactive); in the experiment with Malme-3M, 3.56 µM (inactive); in the experiment with NCI-H460, 4.7 µM (inactive); in the experiment on OVCAR-3, 5.87 µM (inactive). In addition, the GI50 is 29.4 µM (inactive) in the experiment with OVCAR-5; 5.18 µM (inactive) in the experiment on OVCAR-8; 6.62 µM (inactive) in the experiment on SF-268; 14.9 µM (inactive) with SK-MEL-28; 6.08 µM (inactive) in the experiment with SK-MEL-5; 7.4 µM (inactive) with T47D. Also, the GI50 in the experiment with UACC-257 is 6.98 µM (inactive); in the experiment with UACC-62, 8.77 µM (inactive).

Turning to `COc1ccc2cc(NC(=O)N/N=C\c3ccc([N+](=O)[O-])cc3)ccc2c1`, the GI50 in the experiment with A498 was 53 µM (inactive); with BT-549, 27.2 µM (inactive); in the experiment with CAKI-1, 43.6 µM (inactive); in the experiment with DU-145 it was > 100 µM (inactive); with HOP-62, 19.5 µM (inactive); in the experiment on Hs-578T it was 42.5 µM (inactive). In addition, the GI50 with IGROV-1 was 23.7 µM (inactive); with KM12, 72.3 µM (inactive); with MDA-N it was 79.3 µM (inactive); with Malme-3M, 23.4 µM (inactive); in the experiment with NCI-H460, 29.4 µM (inactive); in the experiment with OVCAR-3 it was 40.5 µM (inactive). The GI50 in the experiment with OVCAR-5 is 45.9 µM (inactive); in the experiment with OVCAR-8, 21.8 µM (inactive); in the experiment on SF-268 it was 20.1 µM (inactive); in the experiment with SK-MEL-28, > 100 µM (inactive); in the experiment with SK-MEL-5, 73.3 µM (inactive); in the experiment on T47D, 49.1 µM (inactive). The GI50 with UACC-257 is 42.2 µM (inactive); with UACC-62, 20.9 µM (inactive).

As to `CCC(CCC(C)C1CCC2C3CC=C4CC(OC5OC(CO)C(O)C(O)C5O)CCC4(C)C3CCC12C)C(C)C` (stereo not given), the GI50 in the experiment on A498, with BT-549, in the experiment on CAKI-1, in the experiment with DU-145, with HOP-62 and in the experiment on Hs-578T was > 100 µM (inactive) each time. The GI50 in the experiment on IGROV-1, in the experiment on KM12, in the experiment with MDA-N, in the experiment on Malme-3M, with NCI-H460 and in the experiment with OVCAR-3 was > 100 µM (inactive) each time. For the same molecule, the GI50 with OVCAR-5, in the experiment with OVCAR-8, with SF-268, with SK-MEL-28, with SK-MEL-5 and in the experiment with T47D was > 100 µM (inactive) each time. The GI50 with UACC-257 and in the experiment on UACC-62 was > 100 µM (inactive) in each case.

For the molecule `O=[N+]([O-])c1oc2ccc3ccccc3c2c1CCO`, the GI50 with A498 was 0.166 µM (active); in the experiment on BT-549 it was 2.29 µM (inactive); in the experiment with CAKI-1, 2.25 µM (inactive); with DU-145, 3.51 µM (inactive); in the experiment on HOP-62, 16.6 µM (inactive); in the experiment with Hs-578T it was 5.22 µM (inactive). The GI50 is 1.32 µM (inactive) with IGROV-1; 9.33 µM (inactive) with KM12; 1.77 µM (inactive) with MDA-N; 1.78 µM (inactive) with Malme-3M; 0.0479 µM (active) with NCI-H460; 12.6 µM (inactive) with OVCAR-3. In addition, the GI50 is 7.23 µM (inactive) with OVCAR-5; 3.44 µM (inactive) in the experiment with OVCAR-8; 5.47 µM (inactive) in the experiment on SF-268; 1.38 µM (inactive) in the experiment on SK-MEL-28; 0.546 µM (active) in the experiment on SK-MEL-5; 13.2 µM (inactive) with T47D. The GI50 in the experiment with UACC-257 is 1.94 µM (inactive); in the experiment on UACC-62 it was 2.87 µM (inactive).

On to `C=C1[C@H](OCC(C)C)[C@@H](O)[C@@H](OC(=O)c2cccnc2)C(C)(C)/C=C/[C@H](C)[C@H](OC(C)=O)[C@@]2(O)C[C@@](C)(OC(C)=O)[C@H](OC(=O)c3ccccc3)[C@@H]2[C@H]1OC(C)=O`, for which the GI50 was 0.482 µM (active) with A498; 1.66 µM (inactive) in the experiment on BT-549; 0.488 µM (active) in the experiment with CAKI-1; 1.91 µM (inactive) with DU-145; 0.0681 µM (active) in the experiment on HOP-62; 0.0895 µM (active) in the experiment with Hs-578T. In addition, the GI50 is 1.36 µM (inactive) in the experiment with IGROV-1; 1.34 µM (inactive) in the experiment with KM12; 0.451 µM (active) in the experiment with MDA-N; 0.187 µM (active) in the experiment on Malme-3M; 0.0126 µM (active) in the experiment on NCI-H460; 1.12 µM (active) in the experiment on OVCAR-3. Further, the GI50 in the experiment with OVCAR-5 was > 2.43 µM (inactive); in the experiment with OVCAR-8 it was 1.22 µM (inactive); in the experiment with SF-268, > 1.49 µM (inactive); with SK-MEL-28 it was 1.14 µM (inactive); in the experiment on SK-MEL-5, 0.332 µM (active); in the experiment with T47D, > 2.96 µM (inactive). Also, the GI50 is 2.9 µM (inactive) with UACC-257 and 2.07 µM (inactive) with UACC-62.

Consider `Nc1nc(-c2cccnc2)cc(-c2cc(-c3cccnc3)nc(N)n2)n1`, for which the GI50 in the experiment with A498, with BT-549, in the experiment on CAKI-1, with DU-145, with HOP-62 and with Hs-578T was > 100 µM (inactive) throughout. The GI50 is > 100 µM (inactive) with IGROV-1; > 100 µM (inactive) in the experiment with KM12; 58.7 µM (inactive) in the experiment on MDA-N; > 100 µM (inactive) with Malme-3M; > 100 µM (inactive) in the experiment with NCI-H460; > 100 µM (inactive) with OVCAR-3. The GI50 in the experiment with OVCAR-5, with OVCAR-8, in the experiment with SF-268, in the experiment with SK-MEL-28, with SK-MEL-5 and in the experiment with T47D was > 100 µM (inactive) in each case. The GI50 with UACC-257 and in the experiment with UACC-62 was > 100 µM (inactive) each time.

For `c1ccc2c(c1)Sc1ccccc1N2CCCN1c2ccccc2Sc2ccccc21`, the GI50 with A498 was > 100 µM (inactive); with BT-549 it was > 100 µM (inactive); in the experiment with CAKI-1 it was > 100 µM (inactive); in the experiment on DU-145, > 100 µM (inactive); in the experiment on HOP-62, 95.1 µM (inactive); in the experiment on Hs-578T, 41.2 µM (inactive). Further, the GI50 was > 100 µM (inactive) in the experiment with IGROV-1; > 100 µM (inactive) in the experiment with KM12; > 100 µM (inactive) in the experiment with MDA-N; > 100 µM (inactive) in the experiment with Malme-3M; 39.9 µM (inactive) with NCI-H460; 63.5 µM (inactive) with OVCAR-3. In addition, the GI50 in the experiment on OVCAR-5 is > 100 µM (inactive); with OVCAR-8 it was 54.2 µM (inactive); in the experiment with SF-268 it was > 100 µM (inactive); in the experiment on SK-MEL-28, > 100 µM (inactive); with SK-MEL-5, > 100 µM (inactive); in the experiment with T47D it was > 100 µM (inactive). Further, the GI50 in the experiment on UACC-257 and in the experiment with UACC-62 was > 100 µM (inactive) in each case.

`NC(=O)c1cc2cc(Cl)cc(Cl)c2o/c1=N\c1ccc(F)cc1`: the GI50 in the experiment on A498 is 19.4 µM (inactive); with BT-549, 18.6 µM (inactive); with CAKI-1 it was 18.1 µM (inactive); with DU-145, 19 µM (inactive); in the experiment on HOP-62 it was 27.6 µM (inactive); in the experiment with Hs-578T, 35.1 µM (inactive). Also, the GI50 in the experiment on IGROV-1 was 26.4 µM (inactive); in the experiment with KM12 it was 26.5 µM (inactive); in the experiment on MDA-N, 22.4 µM (inactive); in the experiment on Malme-3M it was 21 µM (inactive); in the experiment with NCI-H460, 17.1 µM (inactive); in the experiment with OVCAR-3, 21.2 µM (inactive). The GI50 in the experiment on OVCAR-5 was 19.6 µM (inactive); in the experiment on OVCAR-8, 37.6 µM (inactive); in the experiment on SF-268 it was 32.4 µM (inactive); in the experiment on SK-MEL-28, 21.9 µM (inactive); in the experiment on SK-MEL-5, 16.9 µM (inactive); with T47D, 18.3 µM (inactive). The figures for the GI50 with UACC-257 and in the experiment with UACC-62 were 19.5 µM (inactive) and 23.3 µM (inactive), respectively.

In the case of `CCc1nc(N)nc(N)c1-c1ccc2c(c1)nnn2CCc1ccccc1`, the GI50 in the experiment on A498 was 24.1 µM (inactive); in the experiment on BT-549, 22.9 µM (inactive); with CAKI-1 it was 11.2 µM (inactive); in the experiment on DU-145, 23.9 µM (inactive); in the experiment on HOP-62 it was 22.2 µM (inactive); in the experiment with Hs-578T it was 30.7 µM (inactive). Besides, the GI50 in the experiment with IGROV-1 was 4.72 µM (inactive); in the experiment on KM12 it was 14.1 µM (inactive); in the experiment with MDA-N it was 6.1 µM (inactive); in the experiment with Malme-3M it was 19.5 µM (inactive); in the experiment with NCI-H460, 2.32 µM (inactive); in the experiment with OVCAR-3 it was 16.6 µM (inactive). Besides, the GI50 in the experiment with OVCAR-5 is > 60.5 µM (inactive); with OVCAR-8, 4.95 µM (inactive); with SF-268, 10.3 µM (inactive); with SK-MEL-28, 31.4 µM (inactive); in the experiment with SK-MEL-5, 8.53 µM (inactive); with T47D, 23.4 µM (inactive). The GI50 in the experiment with UACC-257 was 22.2 µM (inactive); with UACC-62, 7.01 µM (inactive).

Consider `CCS(=O)(=O)CCn1c(=O)c2c(ncn2C)n(C)c1=O`, for which the GI50 in the experiment on A498, in the experiment with BT-549, in the experiment on CAKI-1, in the experiment on DU-145, in the experiment on HOP-62 and in the experiment on Hs-578T was > 100 µM (inactive) throughout. The GI50 in the experiment on IGROV-1, in the experiment on KM12, in the experiment with MDA-N, in the experiment with Malme-3M, with NCI-H460 and in the experiment with OVCAR-3 was > 100 µM (inactive) each time. Also, the GI50 in the experiment on OVCAR-5, in the experiment on OVCAR-8, in the experiment with SF-268, in the experiment with SK-MEL-28, in the experiment with SK-MEL-5 and with T47D was > 100 µM (inactive) in each case. The GI50 in the experiment on UACC-257 is 45.4 µM (inactive); with UACC-62 it was > 100 µM (inactive).
